Experiment [1] deals with Pancreatic phospholipase A2 (Homo sapiens, UniProt P04054). Put plainly: Phospholipase A2 (PLA2) Assay. The following applies: 30 µg/ml test compound; inhibition of 14C-free fatty acid formation. The experiment is classed as biochemical. On the procedure:
The assay buffer contained 10 mM Tris-HCl buffer, pH 8.0, 100 mM NaCl, 1 mM CaCl2 and 1 mg/ml of bovine serum albumin. A toluene-ethanol (1:1 v/v) solution of phosphatidiylcholine, L-a-dipalmitoyl-(2-palmitoyl-1-^14C) obtained from New England Nuclear was evaporated to dryness in a flask under nitrogen and the assay buffer was added to give a substrate concentration of 9.0 x 10^-5M (specific activity = 27.7 mCi/mmol). The mixture was sonicated for 5 minutes in a Bransonic 220 Sonication Bath. Pancreatic phospholipase A2 (specific activity = 600 units/mg) was diluted with the assay buffer to give an enzyme concentration of 0.1 mg/ml. […] To initiate the enzyme reaction, 0.1 ml of the mixture containing the substrate was added to the enzyme solution and the reaction mixture was further incubated for 30 minutes at 37°C. The reaction was then terminated by the addition of 20 µl of 1M citric acid.
Fifty µl of the mixture was added to 10 ml of scintillation fluid [5.88 g of 2,5-diphenyl-oxazole and 118 mg of 1,4-bis(5-phenyloxazol-2-yl)benzene] dissolved in 650 ml of toluene and 350 ml of Triton X-100) and the radioactivity was determined in an Isocap/300 liquid scintillation counter (Searle Analytic Inc., Southfield, Michigan). Another 50 µl of the mixture was applied directly onto the spotting area of a silica gel plate (LK6D, Whatman, Clifton, N.J.) and subjected to thin layer chromatography in a solvent system of ethyl acetate:acetic acid:2,2,4-trimethylpentane:H20 (90:20:50:100, v/v/v). The silica gel on the plate was scraped in 1 cm sections, suspended in 5 ml of the Triton X-100 based scintillation fluid and the radioactivity was determined. Phosphatidylcholine remained at the origin while fatty acids migrated to a few centimeters (2-3 cm) below the solvent front. The percent of ^14C-free fatty acid formed with the test compound added was calculated as compared to the amount formed in control experiments where no test compound was added. […]

Experiment [2] deals with T1, fatty acid cyclooxygenase (Homo sapiens, UniProt P23219).
T1 construct: Microsomes were prepared from 185 bags of human platelets; from tissue; host or cells: human platelets (solubilized microsomes, then electrofocusing and Sephadex G-200)
T1 sequence (P23219 24-599): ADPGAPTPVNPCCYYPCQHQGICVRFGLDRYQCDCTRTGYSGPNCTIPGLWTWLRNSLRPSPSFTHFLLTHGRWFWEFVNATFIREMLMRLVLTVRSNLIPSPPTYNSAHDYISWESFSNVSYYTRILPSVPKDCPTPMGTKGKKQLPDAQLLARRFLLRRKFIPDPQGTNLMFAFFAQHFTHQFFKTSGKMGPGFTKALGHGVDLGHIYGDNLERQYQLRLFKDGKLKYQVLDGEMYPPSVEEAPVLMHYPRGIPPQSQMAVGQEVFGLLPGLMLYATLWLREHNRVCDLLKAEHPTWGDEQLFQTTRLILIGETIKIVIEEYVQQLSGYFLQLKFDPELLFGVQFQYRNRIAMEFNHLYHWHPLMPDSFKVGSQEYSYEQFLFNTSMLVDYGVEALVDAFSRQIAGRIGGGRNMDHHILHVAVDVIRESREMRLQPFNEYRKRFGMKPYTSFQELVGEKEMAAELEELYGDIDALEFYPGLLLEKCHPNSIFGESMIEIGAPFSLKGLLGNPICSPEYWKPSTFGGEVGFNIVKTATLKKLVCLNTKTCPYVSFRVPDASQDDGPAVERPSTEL
Put plainly: Fatty Acid Cyclooxygenase (FCO) Assay. The experiment is classed as biochemical. The following applies: 30 µg/ml test compound; inhibition of formation of PGE2; enzyme from human platelets. As to the method: Microsomes were prepared from 185 bags of human platelets (each bag containing the platelets from one pint of blood prepared using differential centrifugation procedures). The platelets from approximately 60 bags were prepared at one time. Platelet-rich plasma (500 g) was centrifuged at 10,000 x g for 20 minutes, and the platelet pellet was suspended in 100 ml of 0.1M. potassium phosphate buffer, pH 8.0, with a Teflon glass homogenizer and sonicated for 5.0 minutes with a Bronson Sonifier (Model 350) in a rosette flask cooled in ice water. Disrupted platelets were centrifuged 15 minutes at 10,000 x g. The supernatant was centrifuged at 100,000 x g for 90 minutes and the microsomal pellets were homogenized in 25 ml of 20% sucrose containing 1.0% Triton X-100 detergent. After 30 minutes at 4°C, the solubilized microsomes were centrifuged at 100,000 x g for 60 minutes. The yellow supernatant was removed and stored at -70°C.
The solubilized fatty acid cyclooxygenase was applied to a 440 ml electrofocusing column (LKB-8012) containing 1% phisolytes (Brinkman Instruments, Westburgh, NY), pH 2-11, with the cathode at the top of the column. The enzyme was layered onto the column at the appropriate time so that its sucrose concentration was equal to that of the column gradient. This was accomplished by checking the gradient concentration periodically with a sucrose hand refractometer. Electrofocusing was carried out for 16 hours with an initial voltage of 400 V and a final voltage of 900-1,000 volts. Fractions were collected (20 ml) and assayed for PGE2 formation. Active peak fractions were pooled and concentrated by ultrafiltration (XM 100A) to a volume of 3-5 ml.
Active fractions from electrofocusing were applied to a G-200 Sephadex column (2 cm x 46 cm) and eluted with 10 mM potassium phosphate buffer, pH 7.0, in 5 ml fractions. After assay, active fractions were pooled and concentrated to 1.0 ml by ultrafiltration (XM 100A), and kept frozen at -70°C.
Enzyme activity was determined by assaying for PGE2 formation by preincubating the enzyme with 10 mmol/l imidazole phosphate buffer, pH 8.0, 2 mmol/l epinephrine, 2 mmol/1 methemoglobin, and the test compound (30 pg/ml) in a total volume of 0.2 ml for one minute at 37°C. After preincubation, 5 mmol/1 ^14C-arachidonic acid were added and the mixture was incubated an additional 0.5 minutes at 37°C. The enzyme reaction was stopped by the addition of 20 µl of indomethacin (2 mg/ml) in alcohol.
The reaction mixture was spotted (50 pl) on a silica gel (LQ6D) plate and subjected to TLC. The solvent system consisted of chloroform-methanol-glacial acetic acid (90:5:5, v/v/v) and the relative mobilities were PGF2a = 0.235, and PGE2 = 0.47. The silica gel on the plate was scraped in 1 cm sections, suspended in 5 ml of the scintillation fluid [5.88 g of 2,5-diphenyl-oxazole and 118 mg of 1,4-bis(5-phenyloxazol-2-yl)benzene] dissolved in 650 ml of toluene and 350 ml of Triton X-100) and the radioactivity was determined in an Isocap/300 liquid scintillation counter (Searle Analytic, Inc., Southfield, MI). Another 50 µl of the mixture was added to 10 ml of the Triton X-100 based scintillation fluid, and the radioactivity was determined so that the amount of radioactivity recovery from the TLC plate could be ascertained. PGE2 formation for each test compound was determined as a percent of control experiments wherein no test compound was added. Data is expressed in Table I as the percent inhibition of formation of PGE2 at a test compound concentration of 30 pg/ml.

Sequence of Pancreatic phospholipase A2 (P04054 23-148): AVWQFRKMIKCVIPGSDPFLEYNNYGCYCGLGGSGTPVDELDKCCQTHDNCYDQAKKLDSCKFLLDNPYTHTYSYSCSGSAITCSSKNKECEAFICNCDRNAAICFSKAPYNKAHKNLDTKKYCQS

As a reminder, the inhibition is how much of the control response was suppressed. A high value points to a response far below the control. In the case of `CC/C=C\C/C=C\C/C=C\C/C=C\C/C=C\C/C=C\CC1=CC(=O)OC1O` (centres unmarked) [Example 9, (Z,Z,Z,Z,Z,Z)-4-(2,5,8,11,14,17-eicosa-hexaenyl)-5-hydroxy-2(5H)-furanone], the inhibition at 30 µg/mL in experiment [1] was 0%; in experiment [2] it was 46%.
The matching figures for `O=C1C=C(CCCCOc2ccc3ccccc3c2)C(O)O1` (centres unmarked) [Example 12, 5-Hydroxy-4-[4-(2-naphthalenyloxy)butyl]-2(5H)-furanone]: 72% and 16%.
With `O=C1C=C(CCCCCOc2ccccc2Cc2ccccc2)C(O)O1` (centres unmarked) [Example 18, 5-Hydroxy-4-[5-(2-benzylphenoxy)pentyl]-2(5H)-furanone], the values for the inhibition at 30 µg/mL in experiment [1] and in experiment [2] were 44% and 20%, respectively.
The matching figures for `CCCCC/C=C\C/C=C\C/C=C\CCCC1=CC(=O)OC1O` (centres unmarked) [Example 5, (Z,Z,Z)-4-(4,7,10-hexadecatrienyl)-5-hydroxy-2(5H)-furanone]: 77% and 75%.
The like results for `CCCCC/C=C\C/C=C\C/C=C\C/C=C\CCC1=CC(=O)OC1O` (centres unmarked) [Example 3, (Z,Z,Z,Z)-5-hydroxy-4-(3,6,9,12-octa-decatetraenyl)-2(5H)-furanone] were, in that order, 41% and 67%.
The like results for `CC/C=C\C/C=C\C/C=C\CCCCCCC1=CC(=O)OC1O` (centres unmarked) [Example 2, (Z,Z,Z)-4-(7,10,13-hexadecatrienyl)-5-hydroxy-2(5H)-furanone] were, in that order, 82% and 75%.
Turning to `CC(C)=CCCC(C)=CCCC(=CCCC1=CC(=O)OC1O)CO` (centres unmarked) [Example 19, 5-Hydroxy-4-[4-(hydroxymethyl)-8,12-dimethyl-3,7,11-tridecatrienyl]-2(5H)-furanone], the values for the inhibition at 30 µg/mL in experiment [1] and in experiment [2] were 76% and 14%, respectively.
`CC(C)=CCCC(C)=CCCC(C)=CCCC1=CC(=O)OC1O` (centres unmarked) [Example 13, 5-Hydroxy-4-(4,8,12-trimethyl-3,7,11-tri-decatrienyl)-2(5H)-furanone]: the results for the inhibition at 30 µg/mL in experiment [1] and in experiment [2] were 50% and 47%, respectively.
On to `CCCCCCCC/C=C\CCCCCCC1=CC(=O)OC1O` (centres unmarked) [Example 11, (Z)-4-(7-hexadecenyl)-5-hydroxy-2(5H)-furanone], for which the values for the inhibition at 30 µg/mL in experiment [1] and in experiment [2] were 51% and 61%, respectively.
With `CC(C)=CCCC(C)=CCCC(C=O)=CCCC1=CC(=O)OC1O` (centres unmarked) [Example 15, 2-[3-(2,5-dihydro-2-hydroxy-5-oxo-3-furanyl)-propylidene]-6,10-dimethyl-5,9-undecadienal], the inhibition at 30 µg/mL stood at 88% in experiment [1] and 32% in experiment [2].
With `CC(C)=CCC/C(C)=C/CCC1=CC(=O)OC1O` (centres unmarked) [Example 14, (E,E)-4-(4,8-dimethyl-3,7-nonadienyl)-5-hydroxy-2(5H)-furanone], the inhibition at 30 µg/mL in experiment [1] was 72%; in experiment [2], less than 5%.
With `CCCCCCCC/C=C/CCCCCCC1=CC(=O)OC1O` (centres unmarked) [Example 4, (E)-4-(7-hexadecenyl)-5-hydroxy-2(5H)-furanone], the inhibition at 30 µg/mL was determined as 0% in experiment [1] and 52% in experiment [2].
In the case of `CCCCC/C=C\C/C=C\CCCCCCC1=CC(=O)OC1O` (centres unmarked) [Example 1, (Z,Z)-4-(7,10-hexadecadienyl)-5-hydroxy-2-(5H)-furanone], the inhibition at 30 µg/mL in experiment [1] and in experiment [2] was 77% throughout.

The values above are taken from patent publication EP0209274A2, “Furanone derivatives” (ELI LILLY AND COMPANY, priority 1985, dated 1987).
